Laboratory results reported in US12655413B2, “Fragmented GRS polypeptide and variant thereof, and use thereof” (CUREBIO THERAPEUTICS, priority 2018, dated 2026).
Residues, ends and D or L forms follow the SMILES beside them.

What was measured:
[1] = test system: SN12C (CDH6 positive renal cancer cell); test: Comparison of in vitro cancer cell apoptotic activity among the polypeptides (FIG. 2); format: cell-based; conditions: 1 μg or 2 μg of polypeptide
Experimental: The polypeptide fragments were assayed for cancer cell apoptotic activity. Concrete experiment procedures were as follows: H460, HCT116, MCF7, HeLa, SN12C or RENCA cells were each seeded at a density 5,000 cells/mL into 96-well plates (Corning, New York, USA) and incubated for 24 hours with 100 nM of each of the polypeptide fragments and the full-length GRS protein. Then, each sample was treated for 2 hours with 10 μl of CCK8 reagent (Dojindo Molecular Technologies Inc. Kumamoto, Japan) before absorbance was read at 570 nm on a microplate reader (TECAN, Mannedorf, Swiss).
Comparison was made of cancer cell apoptotic activity among the polypeptide constructs of Examples 1-1 and 1-2. Each polypeptide was used in an amount of 1 μg or 2 μg, and the assay was performed in the same manner as in Example 1-1.

[2] = test system: SN12C (CDH6 positive) cells; test: In vivo anticancer activity, intra-tumor injection, SN12C xenograft; design: species or system BALB/c nude mice; conditions: 20 μg into tumors on day 5 and 7; monitored 21 days; FIGS. 6b to 6d
Experimental: FIG. 6a is an experimental scheme for evaluating the ability of GRS, GRS-DP, and representative fragments derived therefrom (GRS-DP-B, or GRS-DP-A cyclic) to induce tumor regression in vivo by intra-tumor injection. Briefly, SN12C (CDH6 positive) cells were subcutaneously injected into BALB/c nude mice and then grown for 5 days to an average tumor size of 100 mm^3. On day 5 and 7, PBS or test materials were each injected at a dose of 20 μg into tumors (n=5 animals/group). Tumor volumes were calculated according to “maximum diameter×minimum diameter^2×0.52”.
Experimental procedures of an assay for in vivo anticancer activity are schematically represented in FIG. 6a. Briefly, 1×10^7 SN12C (CDH6 positive) cells were subcutaneously injected to the right flank of female BALB/c 8 weeks old (Dooyeol Biotech Co. Ltd, Seocho-gu, Seoul) and then grown for 5 days to an average tumor size of 100 mm^3. On day 5 and 7, PBS (control) or test materials (including a control) were each injected at a dose of 20 μg into tumors (n=5 animals/group). After monitoring the tumors for 21 days, the mice were sacrificed on day 21 and the tumors were excised. Tumor volumes were calculated according to “maximum diameter×minimum diameter^2×0.52”.

[3] = test system: SN12C (CDH6 positive) cells; test: In vivo anticancer activity, intravenous injection, SN12C xenograft; design: species or system BALB/c nude mice; conditions: 5 MPK intravenously on day 5 and 7; monitored 21 days; FIGS. 7a to 7c
Excerpt: FIG. 7a is an image of tumors excised from experimental animals in each test group sacrificed on day 21 after xenotransplantation of tumor cells, showing results of evaluating the ability of GRS, GRS-DP, and representative fragments derived therefrom (GRS-DP-B, or GRS-DP-A cyclic) to induce tumor regression in vivo by intravenous injection. Briefly, SN12C (CDH6 positive) cells were subcutaneously injected into BALB/c nude mice and then grown for 5 days to an average tumor size of 100 mm^3. On day 5 and 7, PBS or test materials were each intravenously injected at a dose of 5 MPK (n=5 animals/group). Tumor volumes were calculated according to “maximum diameter×minimum diameter^2×0.52”.
Experimental procedures of an assay for in vivo anticancer activity are schematically represented in FIG. 6a. Briefly, 1×10^7 SN12C (CDH6 positive) cells were subcutaneously injected to the right flank of female BALB/c 8 weeks old (Dooyeol Biotech Co. Ltd, Seocho-gu, Seoul) and then grown for 5 days to an average tumor size of 100 mm^3. On day 5 and 7, PBS (control) or test materials (including a control) were each intravenously injected at a dose of 5 MPK (n=5 animals/group). After monitoring the tumors for 21 days, the mice were sacrificed on day 21 and the tumors were excised. Tumor volumes were calculated according to “maximum diameter×minimum diameter^2×0.52”.

B16F10 cells = test: In vivo tumor targeting of Alexa fluor 488-labeled polypeptides, intravenous injection; design: species or system C57BL/6 mice; conditions: 1 mg/kg intravenously, tumors excised after 24 hours; compared to full-length GRS protein and GRS-DP; FIGS. 8a, 8b
Excerpt: FIG. 8a is an image of tumors excised from test groups, showing comparison of abilities of GRS, GRS-DP, and representative fragments derived therefrom (GRS-DP-B or GRS-DP-A cyclic) to specifically target cancer cells in terms of fluorescence labeling intensity. In the experiment, B16F10 cells were subcutaneously injected into C57BL/6 mice and then grown for 14 days. On day 14, PBS or fluorescence-labeled test materials were each intravenously injected at a dose of 1 MPK, and tumors were excised 24 hours after injection.
Thus, the ability of GRS-DP-B to target tumors in practice was evaluated when it was administered in a systemic manner. For this, GRS-DP-B, GRS-DP-A cyclic, GRS-DP, and full-length GRS protein were assayed for tumor targeting ability in vivo. Briefly, B16F10 cells (5×10^6 cells) were subcutaneously injected into the right flank of each of C57BL/6 mice 8 weeks old. On day 14, full-length GRS and the polypeptides of the present invention, each labeled with Alexa fluor 488, were intravenously injected at a dose of 1 mg/kg mouse weight, and the tumors were excised after 24 hours. Fluorescent signals of tumors were measured using IVIS Lumina Series III (PerkinElmer, Massachusetts, USA) to analyze regions of interest (ROI)

[4] = test system: pERK in SN12C (CDH6 positive) cells or RENCA (CDH6 negative) cells; test: Dephosphorylation of pERK by western blotting; format: cell-based; conditions: 100 nM or 200 nM, 1 hour; SN12C vs RENCA; FIGS. 5b, 5c
Experimental: To examine whether the polypeptides of the present invention dephosphorylates pERK by binding to CDH6 or not, SN12C (CDH6 positive) cells or RENCA (CDH6 negative) cells were treated with the polypeptides of the present invention (typically, 100 nM or 200 nM of GRS-DP) and dephosphorylation of pERK was analyzed. In this regard, full-length GRS 100 nM was used as a positive control. In brief, the cells were […] for 1 hour with full-length GRS or GRS-DP, washed twice with chilled PBS, and lysed in a lysis buffer (150 mM NaCl, 2 mM EDTA, 1% Triton X-100, 1% sodium deoxycholate, 10 mM NaF, 1 mM orthovandadate, 10% glycerol, protease cocktail). Thirty micrograms of each protein were run on SDS/PAGE, followed by western blotting with an ERK antibody purchased from Cell Signaling Technology (Danvers, MA, USA) and an anti-cadherin-6 (K-cadherin) antibody purchased from Abcam (Cambridge, UK).

[5] = test system: CDH6+/pERK+ cells (H460, HeLa, SN12C) or negative cells (RENCA, MCF7); test: CDH6-dependency: cell viability of CDH6/pERK positive or negative cells; format: cell-based; conditions: GRS-DP 100 nM (FIG. 5a legend: 200 nM); CDH6 positive vs negative cells
[6] = biological target: T1, cadherin6 (CDH6)-fc fusion protein (Homo sapiens, UniProt P55285); test: Affinity for CDH6 by surface plasmon resonance (SPR); format: binding; conditions: CDH6 immobilized on carboxymethyl dextran chip
T1 construct: Fc
T1 sequence (P55285 with tags, fused parts or gaps limits assumed): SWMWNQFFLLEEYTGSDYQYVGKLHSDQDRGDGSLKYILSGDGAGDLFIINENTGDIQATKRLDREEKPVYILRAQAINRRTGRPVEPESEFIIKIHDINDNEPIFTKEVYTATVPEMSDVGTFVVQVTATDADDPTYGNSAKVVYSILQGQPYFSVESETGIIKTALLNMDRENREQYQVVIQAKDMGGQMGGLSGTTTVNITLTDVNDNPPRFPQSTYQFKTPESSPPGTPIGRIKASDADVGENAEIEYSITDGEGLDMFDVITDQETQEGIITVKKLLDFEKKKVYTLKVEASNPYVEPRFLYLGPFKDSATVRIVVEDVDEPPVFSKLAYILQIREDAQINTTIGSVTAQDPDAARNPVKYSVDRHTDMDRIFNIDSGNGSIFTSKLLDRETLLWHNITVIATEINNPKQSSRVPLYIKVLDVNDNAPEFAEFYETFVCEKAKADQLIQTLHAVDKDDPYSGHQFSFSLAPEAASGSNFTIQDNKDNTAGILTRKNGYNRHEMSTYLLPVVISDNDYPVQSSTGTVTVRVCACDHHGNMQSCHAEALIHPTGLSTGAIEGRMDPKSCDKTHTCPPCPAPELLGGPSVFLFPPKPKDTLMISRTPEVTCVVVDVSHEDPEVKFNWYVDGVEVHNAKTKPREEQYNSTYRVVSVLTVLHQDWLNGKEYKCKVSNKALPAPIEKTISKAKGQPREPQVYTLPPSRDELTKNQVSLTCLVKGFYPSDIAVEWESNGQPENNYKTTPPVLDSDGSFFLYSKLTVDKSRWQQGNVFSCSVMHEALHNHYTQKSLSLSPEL
Experimental: Comparison was made of the affinity of the peptides of the present invention for CDH6. The binding of GRS and GRS-derived peptides to cadherin6 (CDH6)-fc fusion protein was analyzed by surface plasmon resonance (SPR) using SR7500DC, Reichert Analytical Instrument (Depew NY). CDH6 was immobilized on a [CMDH chip]carboxymethyl dextran sensor chip via a free carboxyl group on the surface thereof, followed by injecting 0.1M 1-ethyl-3-(3-dimethylaminopropyl) carbodiimide hydrochloride and 0.05M N-hydroxysuccinimide at a flow speed of 5 μL/min to give an activated succinimide ester-modified surface. Various concentrations of GRS and GRS-derived peptides were injected at a flow speed of 30 μL/min into phosphate-based saline, after which a mobile-phase buffer was injected at the same flow speed to determine a dissociation rate. Data was analyzed using Software Scrubber 2.0 (Biological Software, Australia).

Compound | cancer cell apoptotic effect [1] | sizes (volumes) and weights of tumors [2] | sizes (volumes) and weights of tumors [3] | tumor-specific target ability (fluorescence ROI of excised tumors) (B16F10 cells) | dephosphorylation of pERK [4] | cell viability [5] | Kd [6] [nM]
GRS-DP-C: truncated GRS fragment, positions 538-552 on SEQ ID NO: 1, 15 aa (SEQ ID NO: 12) (TFHVREGDEQRTFFS; GRS-DP-C (GRS 538-552)) | not detected |  |  |  |  |  | 
GRS-DP-B: truncated GRS fragment, positions 531-538 on SEQ ID NO: 1, 8 aa (SEQ ID NO: 2) (MYTVFEHT; GRS-DP-B(GRS 531-538)) | remarkably | most remarkably reduced | most remarkably reduced | remarkably high tumor-specific target ability |  |  | 
MYTVFEHTFHVREGDEQRTFFSFPAVVAPFKCSVLPLSQNQEFMPFVKELSEALTRHGVSHKVDDSSGSI [GRS-DP] | remarkably |  |  |  | inducing the CDH6-dependent dephosphorylation of pERK | reduced the cell viability of CDH6-positive cells only | 83.9
CSCC[C@H](N)C(=O)N[C@@H](Cc1ccc(O)cc1)C(=O)N[C@H](C(=O)N[C@H](C(=O)N[C@@H](Cc1ccccc1)C(=O)N[C@@H](CCC(=O)O)C(=O)N[C@@H](Cc1c[nH]cn1)C(=O)N[C@H](C(=O)N[C@@H](Cc1ccccc1)C(=O)N[C@@H](Cc1c[nH]cn1)C(=O)N[C@H](C(=O)N[C@@H](CCCNC(=N)N)C(=O)N[C@@H](CCC(=O)O)C(=O)NCC(=O)N[C@@H](CC(=O)O)C(=O)N[C@@H](CCC(=O)O)C(=O)N[C@@H](CCC(N)=O)C(=O)N[C@@H](CCCNC(=N)N)C(=O)N[C@H](C(=O)N[C@@H](Cc1ccccc1)C(=O)N[C@@H](Cc1ccccc1)C(=O)N[C@@H](CO)C(=O)N[C@@H](Cc1ccccc1)C(=O)N1CCC[C@H]1C(=O)N[C@@H](C)C(=O)O)[C@@H](C)O)C(C)C)[C@@H](C)O)C(C)C)[C@@H](C)O [GRS-DP-A linear] (H-MYTVFEHTFHVREGDEQRTFFSFPA-OH; N-terminus and C-terminus assumed) | remarkably |  |  |  |  |  | 
